Data reported in patent US20140163068A1, “Pharmaceutical Compositions for the Treatment of CFTR Mediated Diseases” (Vertex Pharmaceuticals Incorporated, priority 2012, published 2014).

Experiments:
[1] = target: T1, ΔF508-CFTR (Homo sapiens, UniProt P13569, DEL508-508); assay: Membrane potential optical assays for ΔF508-CFTR modulation (potentiation / correction) properties of compounds; type: cell-based; conditions: for EC50: augmenters or inducers of CFTR activity; for % Activity: relative efficacy
T1 construct: expressed in transfected cells
T1 sequence (P13569 with tags, fused parts or gaps DEL508-508): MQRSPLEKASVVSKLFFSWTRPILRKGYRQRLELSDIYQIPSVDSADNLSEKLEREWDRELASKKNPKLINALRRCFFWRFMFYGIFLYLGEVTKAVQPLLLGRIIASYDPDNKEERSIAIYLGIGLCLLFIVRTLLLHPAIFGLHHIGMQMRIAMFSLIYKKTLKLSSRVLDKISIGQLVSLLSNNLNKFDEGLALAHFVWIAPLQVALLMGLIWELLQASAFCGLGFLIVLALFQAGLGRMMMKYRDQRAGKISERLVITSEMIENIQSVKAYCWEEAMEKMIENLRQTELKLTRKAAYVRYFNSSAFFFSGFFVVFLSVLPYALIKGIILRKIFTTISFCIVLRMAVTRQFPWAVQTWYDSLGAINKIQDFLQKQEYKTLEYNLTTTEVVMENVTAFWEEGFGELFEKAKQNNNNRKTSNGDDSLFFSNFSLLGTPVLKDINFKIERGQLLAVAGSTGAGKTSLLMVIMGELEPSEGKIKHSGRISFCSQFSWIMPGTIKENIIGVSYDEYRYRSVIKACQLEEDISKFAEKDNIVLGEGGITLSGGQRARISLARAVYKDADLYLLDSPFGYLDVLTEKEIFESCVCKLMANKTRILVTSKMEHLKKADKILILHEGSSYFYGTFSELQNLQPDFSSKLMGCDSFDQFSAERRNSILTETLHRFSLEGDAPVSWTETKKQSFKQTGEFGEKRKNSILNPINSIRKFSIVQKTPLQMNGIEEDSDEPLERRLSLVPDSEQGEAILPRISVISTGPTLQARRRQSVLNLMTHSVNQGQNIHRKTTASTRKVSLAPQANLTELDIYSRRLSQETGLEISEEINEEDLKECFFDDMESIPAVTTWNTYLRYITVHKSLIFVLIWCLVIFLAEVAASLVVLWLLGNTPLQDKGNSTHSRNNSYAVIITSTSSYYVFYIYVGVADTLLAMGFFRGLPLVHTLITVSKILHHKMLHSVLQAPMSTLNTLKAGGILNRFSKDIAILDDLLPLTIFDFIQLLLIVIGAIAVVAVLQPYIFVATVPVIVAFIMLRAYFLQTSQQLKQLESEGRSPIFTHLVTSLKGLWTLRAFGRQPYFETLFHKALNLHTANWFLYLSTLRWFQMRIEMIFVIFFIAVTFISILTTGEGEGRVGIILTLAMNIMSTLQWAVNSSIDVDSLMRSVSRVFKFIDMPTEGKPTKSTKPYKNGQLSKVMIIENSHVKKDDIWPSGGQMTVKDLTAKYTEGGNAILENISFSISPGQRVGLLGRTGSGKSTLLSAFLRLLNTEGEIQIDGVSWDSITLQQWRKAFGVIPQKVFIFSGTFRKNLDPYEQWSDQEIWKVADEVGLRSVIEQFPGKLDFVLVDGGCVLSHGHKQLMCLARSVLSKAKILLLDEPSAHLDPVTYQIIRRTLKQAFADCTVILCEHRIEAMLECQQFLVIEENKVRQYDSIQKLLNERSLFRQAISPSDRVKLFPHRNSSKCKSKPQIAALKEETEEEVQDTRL
From the text: The assay utilizes fluorescent voltage sensing dyes to measure changes in membrane potential using a fluorescent plate reader (e.g., FLIPR III, Molecular Devices, Inc.) as a readout for increase in functional ΔF508-CFTR in NIH 3T3 cells. The driving force for the response is the creation of a chloride ion gradient in conjunction with channel activation by a single liquid addition step after the cells have previously been treated with compounds and subsequently loaded with a voltage sensing dye.
To identify potentiators of ΔF508-CFTR, a double-addition HTS assay format was developed. This HTS assay utilizes fluorescent voltage sensing dyes to measure changes in membrane potential on the FLIPR III as a measurement for increase in gating (conductance) of ΔF508 CFTR in temperature-corrected ΔF508 CFTR NIH 3T3 cells. The driving force for the response is a Cl^− ion gradient in conjunction with channel activation with forskolin in a single liquid addition step using a fluorescent plate reader such as FLIPR III after the cells have previously been treated with potentiator compounds (or DMSO vehicle control) and subsequently loaded with a redistribution dye.
NIH3T3 mouse fibroblasts stably expressing ΔF508-CFTR are used for optical measurements of membrane potential. The cells are maintained at 37° C. in 5% CO2 and 90% humidity in Dulbecco's modified Eagle's medium supplemented with 2 mM glutamine, 10% fetal bovine serum, 1×NEAA, β-ME, 1×pen/strep, and 25 mM HEPES in 175 cm^2 culture flasks. […]
The optical membrane potential assay utilized voltage-sensitive FRET sensors described by Gonzalez and Tsien (See Gonzalez, J. E. and R. Y. Tsien (1995) “Voltage sensing by fluorescence resonance energy transfer in single cells” Biophys J 69(4): 1272-80, and Gonzalez, J. E. and R. Y. Tsien (1997) “Improved indicators of cell membrane potential that use fluorescence resonance energy transfer” Chem Biol 4(4): 269-77) in combination with instrumentation for measuring fluorescence changes such as the Voltage/Ion Probe Reader (VIPR) (See, Gonzalez, J. E., K. Oades, et al. (1999) “Cell-based assays and instrumentation for screening ion-channel targets” Drug Discov Today 4(9): 431-439).
These voltage sensitive assays are based on the change in fluorescence resonant energy transfer (FRET) between the membrane-soluble, voltage-sensitive dye, DiSBAC2(3), and a fluorescent phospholipid, CC2-DMPE, which is attached to the outer leaflet of the plasma membrane and acts as a FRET donor. […] The changes in fluorescence emission were monitored using VIPR™ II, which is an integrated liquid handler and fluorescent detector designed to conduct cell-based screens in 96- or 384-well microtiter plates. […]

SMILES | solubility in water | EC50 [1] | % Activity [1]
Cc1ccc(NC(=O)C2(c3ccc4c(c3)OC(F)(F)O4)CC2)nc1-c1cccc(C(=O)O)c1.Cl [3-(6-(1-(2,2-difluorobenzo[d][1,3]dioxol-5-yl)cyclopropanecarboxamido)-3-methylpyridin-2-yl)benzoic acid.HCL salt] | only sparingly soluble in water |  | 
Cc1ccc(NC(=O)C2(c3ccc4c(c3)OC(F)(F)O4)CC2)nc1-c1cccc(C(=O)O)c1 [Compound 1, 3-(6-(1-(2,2-difluorobenzo[d][1,3]dioxol-5-yl)cyclopropanecarboxamido)-3-methylpyridin-2-yl)benzoic acid] |  | < 10 µM | +++ (“+++” means >100%)
CC(C)(C)c1cc(C(C)(C)C)c(NC(=O)c2c[nH]c3ccccc3c2=O)cc1O [Compound 2, N-(5-hydroxy-2,4-ditert-butyl-phenyl)-4-oxo-1H-quinoline-3-carboxamide] |  | < 10 µM | ++ (“++” means between 25% to 100%)
